These results are taken from patent US4902699A, “Oxime of 1, 2, 5, 6-tetrahydropyridine compounds their use as medicaments and the compositions containing them” (Roussel Uclaf, priority 1987, dated 1990).

Like-named read-outs stand apart in the source and are kept apart here.

One data set is described as follows: Acute toxicity, oral. Further details: species or system mice. To be noted: mouse, in vivo, mortality during 7 days.
Data set [1] concerns ileum isolated from guinea-pig. Description: Test of ileum isolated from guinea-pig, agonist (contracting) activity. To be noted: Cavia porcellus; negative logarithm of the dose which produces 50% of the maximum effect; read-out: pD2 (converted). The procedure: Pieces of ileum are removed from guinea-pigs killed by decapitation. The isolated ileum is placed in 10 cm^3 of Tyrode solution at 37° C. and aerated with a mixture of oxygen (95%) and carbon dioxide gas (5%). The contractions due to the products are registered by means of a detector connected to a polygraph. The products to be tested are added at concentrations between 1.10^-3 M and 1.10^-8 M/l.
The products presenting a contracting effect are tested vis-a-vis atropine and hexamethonium in order to establish if the activity is of "muscarine" or "nicotine" type.
The agonist activity is expressed in pD2 (negative logarithm of the dose which produces 50% of the maximum effect).

Another data set in a line: Diarrhoeic activity. Further details: species or system mice. To be noted: mouse, in vivo; oral route; dose which causes diarrhoea in 50% of the animals; read-out: DE50 (the source's name). How it is done:
The test is carried out on male mice (CD1 Charles Rivers) weighing […], after fasting for 6 hours. The product dissolved at 5% in methocel is administered by oral route by means of an oesophage probe.
Control animals receive only the excipient.
After treatment, the animals are placed separately in cages of which the base is covered with blotting paper, and they are put under observation for 30, 60, 120 and 180 minutes.
The sheets of absorbent paper are changed after each observation.
The consistency of the feces is evaluated according to the method of Randall and Baruth (Arch. Int. Pharmacodyn. 220, 94, 1976) according to the following scale of values.
1: feces slightly soft, with or without a damp halo
2: feces slightly soft, with a well defined circle of humidity.
3: feces soft with a large circle of humidity.
4: feces without consistency with a very large circle of humidity.
For each product, the dose is noted which causes diarrhoea in 50% of the animals according to the method of Miller and Tainter (Proc. Soc. Exp. Biol. Med., 57, 261, 1944).

The test system of data set [2] is male mice (CD1 Charles RAivers). Description: Hypothermic activity. It counts as in vivo. To be noted: Mus musculus, read-out: Effective dose (-1° C.). The procedure: (§1) The test is carried out on male mice (CD1 Charles RAivers) weighing 25-30 g, having fasted for 6 hours.
The temperature of the body is noted by means of a thermocouple inserted about 1.5 cm in the rectum and connected to an electric temperature recorder.
The products are administered by oral or sub-cutaneous route and the temperatures are noted at the instant 0 and at 30 minutes, 1 hour, 2 hours and 2 and a half hours after treatment.
The degree of hypothermia is evaluated as the difference between the treated animals and the controls, and the dose necessary to reduce the body temperature by 1° C. is noted.

Data set [3] has the same test system. Nature of the data set: Variation of the body temperature (duration of action). The class given is in vivo. The procedure:
as §1
The temperature of the body is noted by means of a thermocouple inserted about 1.5 cm in the rectum and connected to an electric temperature recorder. […]
The duration of action of the products is determined, using the doses able to reduce the temperature by 1° to 1.5° C.

Description for Acute toxicity, oral: The test was carried out on male mice (CD1 Charles Rivers), of 22 to 24 g, having fasted for 16 hours. […] The mortality is noted during the 7 days following the treatment.

As to `CON=CC1=CCCN(OC(=O)Nc2ccc(C(C)C)cc2)C1` [Example 15, Methyl ether of 1-(4-isopropylphenylaminocarbonyloxy) 1,2,5,6-tetrahydropyridin-3-carboxaldehyde oxime], the LD50 (usually the dose at which mortality reaches 50%) at 168 h in the data set “Acute toxicity, oral” is 350 mg/kg. The EC50 in data set [1] was > 100 µM. In addition, in the data set “Diarrhoeic activity”, the ED50 came to 20 mg/kg. Besides, the results for the ED (-1 C) in data set [2] (O.R. (oral route)) and in data set [2] (SC.R (sub-cutaneous route)) were 1.9 mg/kg and 2.4 mg/kg, respectively. The “Variations of the body temperature” value was -0.8 °C in data set [3] (os, 2. mg/kg, 30 min); -1.0 °C in data set [3] (os, 2. mg/kg, 60 min); “+0. °C” in data set [3] (os, 2. mg/kg, 120 min); “+0.1 °C” in data set [3] (os, 2. mg/kg, 180 min); -0.5 °C in data set [3] (sc, 4. mg/kg, 30 min); -1.5 °C in data set [3] (sc, 4. mg/kg, 60 min). Also, the “Variations of the body temperature” value in data set [3] (sc, 4. mg/kg, 120 min) is -1.5 °C; in data set [3] (sc, 4. mg/kg, 180 min), -0.3 °C.
With `CCOC(=O)ON1CCC=C(C=NOC)C1` [Example 6, Methyl ether of 1-ethoxy carbonyloxy-1,2,5,6-tetrahydropyridin-3-carboxaldehyde oxime], the LD50 at 168 h in the data set “Acute toxicity, oral” is 125 mg/kg. Besides, the EC50 in data set [1] is 11.5 µM. Moreover, the ED50 in “Diarrhoeic activity” stood at 0.6 mg/kg. Also, the ED (-1 C) in data set [2] (O.R. (oral route)) amounted to 0.26 mg/kg; in data set [2] (SC.R (sub-cutaneous route)), 0.24 mg/kg. The “Variations of the body temperature” value is -1.3 °C in data set [3] (os, 0.35 mg/kg, 30 min); -1.1 °C in data set [3] (os, 0.35 mg/kg, 60 min); -0.1 °C in data set [3] (os, 0.35 mg/kg, 120 min); -1.4 °C in data set [3] (sc, 0.35 mg/kg, 30 min); -1.1 °C in data set [3] (sc, 0.35 mg/kg, 60 min); -0.1 °C in data set [3] (sc, 0.35 mg/kg, 120 min). Further, in data set [3] (sc, 0.35 mg/kg, 180 min), the “Variations of the body temperature” value is “+0.1 °C”.
`CON=CC1=CCCN(OC(=O)c2ccccc2)C1` [Example 7, Methyl ether of 1-benzoyloxy-1,2,5,6-tetrahydropyridin-3-carboxaldehyde oxime] registered a 50% lethal dose (LD50) at 168 h in the data set “Acute toxicity, oral” of 90 mg/kg. Moreover, the EC50 in data set [1] is > 100 µM. Also, the ED50 in “Diarrhoeic activity” came to 1.5 mg/kg. In addition, the ED (-1 C) in data set [2] (O.R. (oral route)) was determined as 0.42 mg/kg; in data set [2] (SC.R (sub-cutaneous route)), 0.21 mg/kg. Besides, the “Variations of the body temperature” value in data set [3] (os, 0.5 mg/kg, 30 min) is -1.1 °C; in data set [3] (os, 0.5 mg/kg, 60 min), -0.9 °C; in data set [3] (os, 0.5 mg/kg, 180 min), “+0.1 °C”; in data set [3] (sc, 0.25 mg/kg, 30 min), -1.2 °C; in data set [3] (sc, 0.25 mg/kg, 60 min) it was -0.9 °C; in data set [3] (sc, 0.25 mg/kg, 180 min) it was “+0.1 °C”.
Turning to `COC(=O)C1=CCCN(C)C1` [Arecoline HBr, reference compound], the ED (-1 C) in data set [2] (O.R. (oral route)) was 194 mg/kg; in data set [2] (SC.R (sub-cutaneous route)), 3 mg/kg. Further, the “Variations of the body temperature” value in data set [3] (os, 200 mg/kg, 30 min) is -1.1 °C; in data set [3] (os, 200 mg/kg, 60 min), -1.0 °C; in data set [3] (os, 200 mg/kg, 120 min), -0.2 °C; in data set [3] (os, 200 mg/kg, 180 min), -0.1 °C; in data set [3] (sc, 3.5 mg/kg, 30 min) it was -1.5 °C; in data set [3] (sc, 3.5 mg/kg, 60 min) it was -0.1 °C. Moreover, the “Variations of the body temperature” value is “+0.2 °C” in data set [3] (sc, 3.5 mg/kg, 120 min) and “+0.2 °C” in data set [3] (sc, 3.5 mg/kg, 180 min).
With `CON=CC1=CCCN(OC(=O)Nc2ccccc2)C1` [Example 13, Methyl ether of 1-phenylaminocarbonyloxy 1,2,5,6-tetrahydropyridin-3-carboxaldehyde oxime], the LD50 at 168 h in “Acute toxicity, oral” came out at 250 mg/kg. Moreover, in data set [1], the EC50 was > 100 µM. Further, the ED50 in “Diarrhoeic activity” is 5 mg/kg. For the same compound, the ED (-1 C) in data set [2] (O.R. (oral route)) was 0.74 mg/kg; in data set [2] (SC.R (sub-cutaneous route)), 0.43 mg/kg. The “Variations of the body temperature” value was -1.4 °C in data set [3] (os, 1. mg/kg, 30 min); -1.1 °C in data set [3] (os, 1. mg/kg, 60 min); -0.1 °C in data set [3] (os, 1. mg/kg, 120 min); “+0. °C” in data set [3] (os, 1. mg/kg, 180 min); -1.2 °C in data set [3] (sc, 0.5 mg/kg, 30 min); -1.2 °C in data set [3] (sc, 0.5 mg/kg, 60 min). For the same compound, the “Variations of the body temperature” value in data set [3] (sc, 0.5 mg/kg, 120 min) is -0.1 °C.
On to `CON=CC1=CCCN(OC(=O)Nc2ccc(Cl)cc2)C1` [Example 14, Methyl ether of 1-(4-chlorophenylaminocarbonyloxy)-1,2,5,6-tetrahydropyridin-3-carboxaldehyde oxime], for which the LD50 at 168 h in the data set “Acute toxicity, oral” is > 1000 mg/kg. Besides, the EC50 in data set [1] is > 100 µM. Further, the ED50 in “Diarrhoeic activity” turned out to be 10 mg/kg. Besides, the ED (-1 C) in data set [2] (O.R. (oral route)) and in data set [2] (SC.R (sub-cutaneous route)) was 1.8 mg/kg each time. The “Variations of the body temperature” value in data set [3] (os, 2.5 mg/kg, 30 min) is -1.3 °C; in data set [3] (os, 2.5 mg/kg, 60 min) it was -1.5 °C; in data set [3] (os, 2.5 mg/kg, 120 min), -0.3 °C; in data set [3] (os, 2.5 mg/kg, 180 min) it was “+0.1 °C”; in data set [3] (sc, 2.5 mg/kg, 30 min), -0.4 °C; in data set [3] (sc, 2.5 mg/kg, 60 min), -1.5 °C. For the same compound, the “Variations of the body temperature” value is -1.3 °C in data set [3] (sc, 2.5 mg/kg, 120 min) and -0.2 °C in data set [3] (sc, 2.5 mg/kg, 180 min).
As to `CON=CC1=CCCN(OC(=O)Nc2ccc(OC)cc2)C1` [Example 16, Methyl ether of 1-paramethoxyphenylaminocarbonyloxy-1,2,5,6-tetrahydropyridin-3-carboxaldehyde oxime], the median lethal dose (LD50) at 168 h in “Acute toxicity, oral” amounted to 60 mg/kg. In addition, in data set [1], the EC50 was > 100 µM. Moreover, the ED50 in the data set “Diarrhoeic activity” worked out at 6 mg/kg. Besides, the ED (-1 C) in data set [2] (O.R. (oral route)) is 0.88 mg/kg; in data set [2] (SC.R (sub-cutaneous route)), 0.78 mg/kg. Further, the “Variations of the body temperature” value in data set [3] (os, 1. mg/kg, 30 min) is -1.1 °C; in data set [3] (os, 1. mg/kg, 60 min) it was -1.1 °C; in data set [3] (os, 1. mg/kg, 120 min) it was -0.1 °C; in data set [3] (sc, 1. mg/kg, 30 min), -1.2 °C; in data set [3] (sc, 1. mg/kg, 60 min), -1.5 °C; in data set [3] (sc, 1. mg/kg, 120 min), -0.3 °C. The “Variations of the body temperature” value in data set [3] (sc, 1. mg/kg, 180 min) is “+0.1 °C”.
The compound `CCCNC(=O)ON1CCC=C(C=NOC)C1` [Example 10, Methyl ether of 1-propyl aminocarbonyloxy-1,2,5,6-tetrahydropyridin-3-carboxyaldehyde oxime] registered a 50% lethal dose (LD50) at 168 h in “Acute toxicity, oral” of 125 mg/kg. For the same compound, in data set [1], the EC50 was > 100 µM. Further, the ED50 in “Diarrhoeic activity” amounted to 20 mg/kg. Also, the ED (-1 C) in data set [2] (O.R. (oral route)) was 1.4 mg/kg; in data set [2] (SC.R (sub-cutaneous route)), 1.3 mg/kg. Besides, the “Variations of the body temperature” value is -1.2 °C in data set [3] (os, 1.56 mg/kg, 30 min); -1.0 °C in data set [3] (os, 1.56 mg/kg, 60 min); -0.1 °C in data set [3] (os, 1.56 mg/kg, 120 min); “+0.1 °C” in data set [3] (os, 1.56 mg/kg, 180 min); -1.2 °C in data set [3] (sc, 1.56 mg/kg, 30 min); -1.1 °C in data set [3] (sc, 1.56 mg/kg, 60 min). Also, the “Variations of the body temperature” value in data set [3] (sc, 1.56 mg/kg, 180 min) is “+0.1 °C”.
